Reference: patent publication US7091202B2, “4-arylspirocycloalkyl-2-aminopyrimidine carboxamide KCNQ potassium channel modulators” (Bristol-Myers Squibb Company, priority 2004, dated 2006)

These compounds were tested against T1, hQ23 (HEK-293 cell line stably transfected with one of the members of the KCNQ family) (Homo sapiens, UniProt O43525+O43526) (assay: Thallium flux assay for KCNQ channel blockers (FLIPR, BTC dye)). Conditions: Table 2; thallium flux, HEK-293.
T1 construct: expressed in transfected cells; host or cells: HEK-293, stably transfected
Assay type: cell-based
Procedure: Thallium Flux Assay for KCNQ channel blockers. Approximately 20,000 cells/well of an HEK-293 cell line stably transfected with one of the members of the KCNQ family were plated into clear-bottom, black-walled, poly-D-lysine coated, 384 well assay plates in 20 μl/well of low chloride plating medium. Low chloride plating medium was composed of the following: sodium gluconate, 109 mM; potassium gluconate, 5.4 mM; hemi-calcium gluconate, 3.6 mM; magnesium sulfate, 0.8 mM; sodium bicarbonate, 26.2 mM; sodium phosphate monobasic, 1.2 mM; glutamine, 2 mM; glucose, 5 mM; HEPES (pH 7.3) 10 mM, 10× concentration of vitamins (Gibco/LifeTechnologies catalog #11120-052) and 1× concentration of amino acids (Gibco/LifeTechnologies catalog #11130-051).
Following overnight incubation in a 5% CO2 incubator at 37° C., the cells in the plates were loaded with 20 μl/well of a dye loading solution containing the acetomethoxy ester of the thallium-sensitive fluorescent dye BTC, BTC-AM (2 μM) and pluronic acid (0.02% w/v) in chloride free assay buffer. Chloride free assay buffer was composed of the following: sodium gluconate, 140 mM; potassium gluconate, 2.5 mM; hemi-calcium gluconate, 6 mM; hemi-magnesium gluconate, 2 mM; glucose, 5 mM; HEPES (pH 7.3), 10 mM.
Following incubation in the dye loading solution for from 45–90 min at room temperature, the dye loading solution was removed by aspiration and replaced with 40 μl/well of chloride free assay buffer.
Prior to addition to cell plates, test compound and standard compounds were dissolved in DMSO to 3 mM concentration. Compounds were then diluted from the 3 mM stock to 100-fold over the final assay concentration in DMSO. Finally, compounds in DMSO were diluted from 100-fold over the final assay concentration to 5-fold over the final assay concentration in chloride free assay buffer.
Ten μl/well of compounds at 5-fold over the final assay concentration were then added to the cell plates. This represents a 1:5 dilution, yielding the final test concentration. The wells used for test compounds were A1–P20. Wells A21–P22 contained a standard ‘blocker’ and a fully efficacious concentration (positive control). Wells A23–P24 contained chloride free assay buffer containing 1% DMSO (negative control).
Following addition of test compounds, the plates were loaded onto the Molecular Devices FLIPR. The 488 nm line of the argon laser was used to excite the BTC and the emission filter was a 540(+/−30) nm. Images were collected at 1 Hz. Ten seconds of baseline were collected and then the FLIPR was used to add 13 μl/well of a stimulus buffer composed of Tl2SO4, 25 mM; sodium gluconate, 30 mM; potassium sulfate, 50 mM; hemi-calcium gluconate, 6 mM; hemi-magnesium gluconate, 2 mM; glucose, 5 mM; HEPES (pH 7.3), 10 mM in chloride free assay buffer. Images were collected for an additional 60 seconds.
For data analysis, the amplitude of the average of the negative controls was subtracted from all wells. The amplitudes of the test compounds were then compared to the value of four standard deviations of the negative control wells. The lowest concentration of a test compound sufficient to generate a signal amplitude greater than or equal to four standard deviations from the amplitude of the negative controls was defined as the minimal active concentration.
For generating IC50 values, compounds were serially diluted in 1:3 volume increments to produce a 10 point concentration series. IC50 values were calculated by fitting the resulting amplitudes to a single-site logistic equation. IC50 was defined as the concentration of test compound required to yield 50% of the response of the positive control.

T1 sequence (O43526 whole entry): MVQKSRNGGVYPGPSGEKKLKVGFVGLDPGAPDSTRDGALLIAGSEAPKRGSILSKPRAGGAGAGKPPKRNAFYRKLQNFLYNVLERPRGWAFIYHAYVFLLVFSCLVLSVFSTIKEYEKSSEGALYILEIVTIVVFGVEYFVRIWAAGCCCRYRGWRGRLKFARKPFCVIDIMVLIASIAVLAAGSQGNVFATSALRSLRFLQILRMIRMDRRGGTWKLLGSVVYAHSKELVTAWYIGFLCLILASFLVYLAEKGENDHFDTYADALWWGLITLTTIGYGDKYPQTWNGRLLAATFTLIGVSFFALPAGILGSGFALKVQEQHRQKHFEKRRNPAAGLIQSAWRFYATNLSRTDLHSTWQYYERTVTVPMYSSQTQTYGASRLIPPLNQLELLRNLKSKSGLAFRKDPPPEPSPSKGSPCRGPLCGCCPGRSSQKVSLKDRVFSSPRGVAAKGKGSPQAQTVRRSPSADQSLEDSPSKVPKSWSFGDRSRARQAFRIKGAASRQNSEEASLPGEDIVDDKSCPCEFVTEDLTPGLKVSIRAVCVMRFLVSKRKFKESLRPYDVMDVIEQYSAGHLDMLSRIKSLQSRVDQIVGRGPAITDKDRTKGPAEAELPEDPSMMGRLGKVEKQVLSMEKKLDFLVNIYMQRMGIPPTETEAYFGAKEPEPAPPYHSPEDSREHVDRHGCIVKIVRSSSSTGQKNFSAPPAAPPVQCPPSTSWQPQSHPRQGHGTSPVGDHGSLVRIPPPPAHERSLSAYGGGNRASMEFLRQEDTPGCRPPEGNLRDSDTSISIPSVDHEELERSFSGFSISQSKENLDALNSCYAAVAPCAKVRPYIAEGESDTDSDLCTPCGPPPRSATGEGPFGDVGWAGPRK
T1 sequence (O43525 whole entry): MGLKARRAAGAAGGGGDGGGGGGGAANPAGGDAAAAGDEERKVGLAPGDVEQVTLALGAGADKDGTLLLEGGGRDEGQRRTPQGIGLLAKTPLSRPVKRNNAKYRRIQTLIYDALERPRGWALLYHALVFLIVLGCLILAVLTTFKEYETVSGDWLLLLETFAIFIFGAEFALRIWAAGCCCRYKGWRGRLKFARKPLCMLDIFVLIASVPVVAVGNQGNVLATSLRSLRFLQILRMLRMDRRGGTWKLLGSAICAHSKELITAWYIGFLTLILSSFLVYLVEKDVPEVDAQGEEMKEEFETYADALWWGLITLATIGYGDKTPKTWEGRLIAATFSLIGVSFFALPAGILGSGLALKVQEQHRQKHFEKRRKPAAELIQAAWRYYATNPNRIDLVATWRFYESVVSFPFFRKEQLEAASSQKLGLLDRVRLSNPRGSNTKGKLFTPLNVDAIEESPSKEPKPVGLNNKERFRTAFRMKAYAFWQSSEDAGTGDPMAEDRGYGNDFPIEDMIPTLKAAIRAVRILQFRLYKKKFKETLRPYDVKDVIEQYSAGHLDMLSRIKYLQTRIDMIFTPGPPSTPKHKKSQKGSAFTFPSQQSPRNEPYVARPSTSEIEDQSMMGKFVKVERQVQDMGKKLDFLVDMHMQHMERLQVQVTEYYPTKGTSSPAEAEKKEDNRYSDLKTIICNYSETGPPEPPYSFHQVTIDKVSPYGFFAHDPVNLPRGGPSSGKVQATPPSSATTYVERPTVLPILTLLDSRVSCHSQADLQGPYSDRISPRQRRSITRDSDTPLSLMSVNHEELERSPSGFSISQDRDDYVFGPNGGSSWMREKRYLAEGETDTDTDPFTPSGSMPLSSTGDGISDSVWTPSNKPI

Row | EC50 [nM] | Compound
1 | 297 | CC1CCN(c2ncc(C(=O)NCc3cc(F)cc(C(F)(F)F)c3)c(C3(c4ccccc4)CC3)n2)CC1 [Example 48, 5-pyrimidinecarboxamide, N-[[3-fluoro-5-(trifluoromethyl)phenyl]methyl]-2-(4-methyl-1-piperidinyl)-4-(1-phenylcyclopropyl)-]
2 | 575 | CC1CCC(Nc2ncc(C(=O)NC(C)c3ccc(F)cc3)c(C3(c4ccccc4)CC3)n2)CC1 (stereo not shown) [Example 49, 5-pyrimidinecarboxamide, N-[1-(4-fluorophenyl)ethyl]-2-[(4-methylcyclohexyl)amino]-4-(1-phenylcyclopropyl)-]
3 | 673 | CC1CCCN(c2ncc(C(=O)NC(C)c3ccc(F)cc3)c(C3(c4ccccc4)CC3)n2)C1 (stereo not shown) [Example 50, 5-pyrimidinecarboxamide, N-[1-(4-fluorophenyl)ethyl]-2-(3-methyl-1-piperidinyl)-4-(1-phenylcyclopropyl)-]
4 | 672 | CC1CCN(c2ncc(C(=O)NC(C)c3ccc(F)cc3)c(C3(c4ccccc4)CC3)n2)CC1 (stereo not shown) [Example 51, 5-pyrimidinecarboxamide, N-[1-(4-fluorophenyl)ethyl]-2-(4-methyl-1-piperidinyl)-4-(1-phenylcyclopropyl)-]

Same assay, conditions: Table 3; thallium flux, HEK-293

Row | Compound | EC50 [nM]
5 | CCN(CC)C(=O)c1cnc(NCCN(C)C)nc1C1(c2ccc(Cl)cc2)CCC1 [Example 53, 5-pyrimidinecarboxamide, 4-[1-(4-chlorophenyl)cyclobutyl]-2-[[2-(dimethylamino)ethyl]amino]-N,N-diethyl-] | 558
6 | CN(C)CCNc1ncc(C(=O)N2CCc3ccccc3C2)c(C2(c3ccc(Cl)cc3)CCC2)n1 [Example 54, isoquinoline, 2-[[4-[1-(4-chlorophenyl)cyclobutyl]-2-[[2-(dimethylamino)ethyl]amino]-5-pyrimidinyl]carbonyl]-1,2,3,4-tetrahydro-] | 475
7 | CN(C)CCNc1ncc(C(=O)N(C)CCc2ccccc2)c(C2(c3ccc(Cl)cc3)CCC2)n1 [Example 55, 5-pyrimidinecarboxamide, 4-[1-(4-chlorophenyl)cyclobutyl]-2-[[2-(dimethylamino)ethyl]amino]-N-methyl-N-(2-phenylethyl)-] | 321
8 | O=C(NCc1cccc2ccccc12)c1cnc(N2CCCC2)nc1C1(c2ccc(Cl)cc2)CCC1 [Example 61, 5-pyrimidinecarboxamide, 4-[1-(4-chlorophenyl)cyclobutyl]-N-(1-naphthalenylmethyl)-2-(1-pyrrolidinyl)-] | 79
9 | CC1CCCN(c2ncc(C(=O)NCc3cc(F)cc(C(F)(F)F)c3)c(C3(c4ccc(Cl)cc4)CCC3)n2)C1 (stereo not shown) [Example 66, 5-pyrimidinecarboxamide, 4-[1-(4-chlorophenyl)cyclobutyl]-N-[[3-fluoro-5-(trifluoromethyl)phenyl]methyl]-2-(3-methyl-1-piperidinyl)-] | 10
10 | CC1CCN(c2ncc(C(=O)NCc3cc(F)cc(C(F)(F)F)c3)c(C3(c4ccc(Cl)cc4)CCC3)n2)CC1 [Example 67, 5-pyrimidinecarboxamide, 4-[1-(4-chlorophenyl)cyclobutyl]-N-[[3-fluoro-5-(trifluoromethyl)phenyl]methyl]-2-(4-methyl-1-piperidinyl)-] | 10
11 | CC1CCCN(c2ncc(C(=O)NC(C)c3ccc(F)cc3)c(C3(c4ccc(Cl)cc4)CCC3)n2)C1 (stereo not shown) [Example 68, 5-pyrimidinecarboxamide, 4-[1-(4-chlorophenyl)cyclobutyl]-N-[1-(4-fluorophenyl)ethyl]-2-(3-methyl-1-piperidinyl)-] | 128

The remaining lines, values ahead:

Row | EC50 [nM] | Compound
12 | 211 | CCC(C)Nc1ncc(C(=O)N(CC)CC)c(C2(c3ccc(Cl)cc3)CCC2)n1 (stereo not shown) [Example 52, 5-pyrimidinecarboxamide, 4-[1-(4-chlorophenyl)cyclobutyl]-N,N-diethyl-2-[(1-methylpropyl)amino]-]
13 | 719 | O=C(NCc1ccc2c(c1)OCO2)c1cnc(N2CCCC2)nc1C1(c2ccc(Cl)cc2)CCC1 [Example 56, 5-pyrimidinecarboxamide, N-(1,3-benzodioxol-5-ylmethyl)-4-[1-(4-chlorophenyl)cyclobutyl]-2-(1-pyrrolidinyl)-]
14 | 745 | CN1CCN(c2ncc(C(=O)NCc3ccc4c(c3)OCO4)c(C3(c4ccc(Cl)cc4)CCC3)n2)CC1 [Example 57, 5-pyrimidinecarboxamide, N-(1,3-benzodioxol-5-ylmethyl)-4-[1-(4-chlorophenyl)cyclobutyl]-2-(4-methyl-1-piperazinyl)-]
15 | 90 | CC1CCN(c2ncc(C(=O)NCc3ccc4c(c3)OCO4)c(C3(c4ccc(Cl)cc4)CCC3)n2)CC1 [Example 58, 5-pyrimidinecarboxamide, N-(1,3-benzodioxol-5-ylmethyl)-4-[1-(4-chlorophenyl)cyclobutyl]-2-(4-methyl-1-piperidinyl)-]
16 | 405 | CCC(C)Nc1ncc(C(=O)NCc2ccc3c(c2)OCO3)c(C2(c3ccc(Cl)cc3)CCC2)n1 (stereo not shown) [Example 59, 5-pyrimidinecarboxamide, N-(1,3-benzodioxol-5-ylmethyl)-4-[1-(4-chlorophenyl)cyclobutyl]-2-[(1-methylpropyl)amino]-]
17 | 614 | O=C(NCc1cccc2ccccc12)c1cnc(NC2CC2)nc1C1(c2ccc(Cl)cc2)CCC1 [Example 60, 5-pyrimidinecarboxamide, 4-[1-(4-chlorophenyl)cyclobutyl]-2-(cyclopropylamino)-N-(1-naphthalenylmethyl)-]
18 | 39 | CC1CCCN(c2ncc(C(=O)NCc3cccc4ccccc34)c(C3(c4ccc(Cl)cc4)CCC3)n2)C1 (stereo not shown) [Example 62, 5-pyrimidinecarboxamide, 4-[1-(4-chlorophenyl)cyclobutyl]-2-(3-methyl-1-piperidinyl)-N-(1-naphthalenylmethyl)-]
19 | 14 | CC1CCCN(c2ncc(C(=O)NCc3ccc(Cl)cc3Cl)c(C3(c4ccc(Cl)cc4)CCC3)n2)C1 (stereo not shown) [Example 63, 5-pyrimidinecarboxamide, 4-[1-(4-chlorophenyl)cyclobutyl]-N-[(2,4-dichlorophenyl)methyl]-2-(3-methyl-1-piperidinyl)-]
20 | 34 | CC1CCN(c2ncc(C(=O)NCc3ccc(Cl)cc3Cl)c(C3(c4ccc(Cl)cc4)CCC3)n2)CC1 [Example 64, 5-pyrimidinecarboxamide, 4-[1-(4-chlorophenyl)cyclobutyl]-N-[(2,4-dichlorophenyl)methyl]-2-(4-methyl-1-piperidinyl)-]
21 | 56 | CC1CCC(Nc2ncc(C(=O)NCc3ccc(F)cc3F)c(C3(c4ccc(Cl)cc4)CCC3)n2)CC1 (stereo not shown) [Example 65, 5-pyrimidinecarboxamide, 4-[1-(4-chlorophenyl)cyclobutyl]-N-[(2,4-difluorophenyl)methyl]-2-[(4-methylcyclohexyl)amino]-]

Same assay, conditions: hQ23 cells, thallium flux

Row | EC50 [nM] | Compound
22 | 778 | CN(Cc1ccccc1)C(=O)c1cnc(N2CCCC2)nc1C1(c2ccccc2)CCCC1 [Example 69, 5-pyrimidinecarboxamide, N-methyl-4-(1-phenylcyclopentyl)-N-(phenylmethyl)-2-(1-pyrrolidinyl)-]
23 | 270 | CC1CCN(c2ncc(C(=O)N(C)Cc3ccccc3)c(C3(c4ccccc4)CCCC3)n2)CC1 [Example 70, 5-pyrimidinecarboxamide, N-methyl-2-(4-methyl-1-piperidinyl)-4-(1-phenylcyclopentyl)-N-(phenylmethyl)-]
24 | 718 | CN(Cc1ccccc1)C(=O)c1cnc(NC2CCCC2)nc1C1(c2ccccc2)CCCC1 [Example 71, 5-pyrimidinecarboxamide, 2-(cyclopentylamino)-N-methyl-4-(1-phenylcyclopentyl)-N-(phenylmethyl)-]
25 | 576 | CCN(CC)C(=O)c1cnc(NC2CCC(C)CC2)nc1C1(c2ccccc2)CCCC1 (stereo not shown) [Example 72, 5-pyrimidinecarboxamide,N,N-diethyl-2-[(4-methylcyclohexyl)amino]-4-(1-phenylcyclopentyl)-]
